According to article PMC7694037, “Quinolizidine-Derived Lucanthone and Amitriptyline Analogues Endowed with Potent Antileishmanial Activity” (Pharmaceuticals, 2020):
In brackets after ≈: the same amount, converted by molar mass. Where two headings read alike, the source gives them in different places.

Legend:
L. donovani = system: L. donovani; parameters: method as in PMID 21358812; settings: ex vivo splenic explant model system; read-out: IC50 against L. donovani; cited from earlier work
[1] = system: choline uptake into rat brain synaptosomes; parameters: method as in PMID 6124978; settings: 1 µM concentration; cited from earlier work
[2] = i.p., doses up to 200–350 mg/kg, once a day for five consecutive days, mice inoculated with leukemia P388 cells; cited from earlier work
PMA-differentiated THP-1 = assay: Cytotoxicity against PMA-differentiated THP-1 cells (MTT); assay type: cell-based, human; settings: CC50 THP-1 / IC50 L. infantum amastigotes
Description: (§1) The cytotoxic concentration (CC50) against THP-1 differentiated into macrophages (Table 3), used for testing the activity against the amastigote stage, is also reported.
(§2) THP-1 cells were plated at 5 × 10^5 cells/mL in 96 wells flat bottom microplates and treated with 0.1 µM PMA for 48 h to achieve differentiation into macrophages. Cells were then treated with serial dilutions of test compounds and cell proliferation evaluated using the MTT assay described for promastigotes.

[3] = as above; assay type: cell-based, human; settings: human
Description: as §1, §2

[4] = system: Mycobacterium tuberculosis; parameters: method as in PMID 3653383; settings: cited from earlier work
[5] = system: intramacrophagic amastigotes of L. infantum; assay: Intracellular amastigote susceptibility assay in PMA-differentiated THP-1 macrophages; assay type: cell-based; settings: Leishmania infantum, read-out: L. infantum Amastigotes IC50
Description: Finally, for a better idea of their real value as antileishmanial agents, compounds 14 and 17, displaying the most promising activity against promastigote stage and the highest SI values, together with lucanthone and the corresponding quinolizidine analog 1, were tested against the intramacrophagic amastigote stage of L. infantum.
THP-1 cells (human acute monocytic leukemia) were maintained in RPMI supplemented with 10% FBS (EuroClone), 50 µM 2-mercaptoethanol, 20 mM Hepes and 2 mM glutamine, at 37 °C in 5% CO2. For Leishmania infections, THP-1 cells were plated at 5 × 10^5 cells/mL in 16-chamber Lab-Tek culture slides (Nunc, Milan, Italy) and treated with 0.1 µM phorbol myristate acetate (PMA, Sigma) for 48 h to achieve differentiation into macrophages. Cells were washed and infected with metacyclic L. infantum promastigotes at a macrophage/promastigote ratio of 1/10 for 24 h. Cell monolayers were then washed and incubated in the presence of test compounds for 72 h. Slides were fixed with methanol and stained with Giemsa. The percentages of infected macrophages among treated and non-treated cells were determined by light microscopy.

Staphylococcus aureus = system: Staphylococcus aureus; parameters: method as in PMID 3653383; settings: cited from earlier work
[6] = system: L. infantum promastigotes; assay: Antileishmanial activity against L. infantum promastigotes (MTT assay); settings: for IC50: Leishmania infantum, 72 h, read-out: IC50 L. infantum; for Ratio IC50 Miltef./IC50 Compd. (L. infantum): ratio between IC50 of miltefosine and that of each compound, L. infantum promastigotes
Description: (§5) Promastigote stage of L. infantum strain MHOM/TN/80/IPT1 (kindly provided by Dr. M. Gramiccia, ISS, Roma) and L. tropica (MHOM/SY/2012/ISS3130) were cultured in RPMI 1640 medium (EuroClone) supplemented with 10% heat-inactivated fetal calf serum (EuroClone, Milan Italy), 20 mM Hepes and 2 mM L-glutamine at 24 °C. […] Compounds were dissolved in DMSO and then diluted with medium to achieve the required concentrations. Drugs were placed in 96 wells round-bottom microplates and seven serial dilutions made. Miltefosine was used as reference anti-Leishmania drug. Parasites were diluted in complete medium to 5 × 10^6 parasites/mL and 100 μL of the suspension was seeded into the plates, incubated at 24 °C for 72 h and then 20 µL of MTT solution (5 mg/mL) was added into each well for 3 h. The plates were then centrifuged, the supernatants were discarded and the resulting pellets were dissolved in 100 µL of lysing buffer consisting of 20% (w/v) of a solution of SDS (Sigma), 40% DMF (Merck, Milan Italy) in H2O. The absorbance was measured spectrophotometrically at a test wavelength of 550 nm and a reference wavelength of 650 nm.

Bacillus subtilis = system: Bacillus subtilis; parameters: method as in PMID 3653383; settings: cited from earlier work
[7] = Cytotoxicity against Vero-76 cells (crystal violet staining); assay type: cell-based, Cercopithecus Aethiops; settings: Cercopithecus aethiops (African green monkey)
Description: (§3) The cytotoxicity of lucanthone was also tested for comparison. […] The relevant selectivity index (SI)—a parameter that quantifies the preferential antileishmanial activity of a compound in relation to mammalian cell toxicity (CC50/IC50)—is tabulated in Table 2. […] The replacement of the 4-methyl substituent with an amino group in compound 14, while preserving good antileishmanial activity, led to a further substantial decrease of cytotoxicity, with a resultantly safer profile (SI = 16.2 and 16.9 for the two Leishmania species).
(§4) Vero-76 cells (ATCC CRL 1587 Cercopithecus Aethiops) were seeded at an initial density of 4 × 10^5 cells/mL in 24-well plates, in culture medium (Dulbecco’s modified eagle’s medium (D-MEM) with L-glutamine, supplemented with fetal bovine serum (FBS), 0.025 g/L kanamycin). Cell cultures were then incubated at 37 °C in a humidified, 5% CO2 atmosphere in the absence or presence of serial dilutions of test compounds. Cell viability was determined after 48–96 h at 37 °C by the Crystal violet staining method. The results are expressed as CC50, which is the concentration of compound necessary to inhibit cell growth by 50%. Each CC50 value is the mean and standard deviation of at least three separate experiments performed in duplicate.

Vero-76 cells = assay: as above; assay type: cell-based, Cercopithecus Aethiops; settings: for S.I. L. tropica: CC50 Vero-76 / IC50 L. tropica promastigotes
Description: as §3, §4

[8] = system: Leishmania tropica promastigotes; assay: Antileishmanial activity against L. tropica promastigotes (MTT assay); settings: for IC50: 72 h, IC50 ± SD; for Ratio IC50 Miltef./IC50 Compd. (L. tropica): ratio between IC50 of miltefosine and that of each compound, L. tropica promastigotes
Description: as §5

[9] = system: rat skeletal myoblast cells (L6); settings: cited from earlier work
[10] = system: rat skeletal myoblast cells (L6); assay: Cytotoxicity on rat skeletal myoblast cells (L6); assay type: cell-based
[11] = parameters: method as in PMID 4954156, PMID 4633870; settings: bacteria not specified; cited from earlier work
BChE = system: BChE; parameters: method as in PMID 3707621, PMID 25924599, PMID 21459491; settings: cited from earlier work
AChE = system: AChE; parameters: method as in PMID 3707621, PMID 25924599, PMID 21459491; settings: cited from earlier work
[12] = system: intramacrophagic L. tropica amastigotes; parameters: method as in PMID 6312823; settings: cited from earlier work
[13] = Leishmania tropica, read-out: IC50 L. tropica, promastigotes, MTT, 72 h

Compound | inhibition of choline uptake into rat brain synaptosomes [1] | mortality [2] | SI (THP-1) (PMA-differentiated THP-1) | IC50 [6] [µM] | Ratio IC50 Miltef./IC50 Compd. (L. infantum) [6] | S.I. L. tropica (Vero-76 cells) | IC50 [8, 13] [µM] | Ratio IC50 Miltef./IC50 Compd. (L. tropica) [8] | other results
O=c1c2ccccc2sc2c(CO)ccc(CCN3CCCCC3)c12 [1-(piperidinoethyl)-4-hydroxymethylthioxanthen-9-one] |  |  |  |  |  |  |  |  | IC50 (L. donovani): 9.1 µM
CN(C)CCC=C1c2ccccc2CCc2ccccc21 [Amitriptyline] | completely ineffective |  |  |  |  |  |  |  | 
Cc1ccc(NC[C@@H]2CCCN3CCCC[C@H]23)c2c(=O)c3ccccc3sc12 [Compound 1] |  | no mortality | 8.0 | 3.87 ± 1.53 | 8.1 | 7.0 | 3.36 ± 1.53 | 12.9 | CC50 [3]: 28 ± 8 µM; MIC Mycobacterium tuberculosis [4]: 1.25 µg/mL; MIC Mycobacterium tuberculosis ([4]; converted from µg/mL): 3.32 µM; IC50 ([5]; intramacrophagic amastigotes in THP-1 macrophages, 72 h, mean ± SD): 3.49 ± 0.18 µM; MIC Staphylococcus aureus (Staphylococcus aureus): 2.5 µg/mL; MIC Staphylococcus aureus (Staphylococcus aureus; converted from µg/mL): 6.63 µM; MIC Bacillus subtilis (Bacillus subtilis): 2.5 µg/mL; MIC Bacillus subtilis (Bacillus subtilis; converted from µg/mL): 6.63 µM; CC50 [7]: 23.5 ± 1.8 µM
COc1ccc2sc3c(C)ccc(NCCC4CCCN5CCCCC45)c3c(=O)c2c1 (centres unmarked) [Compound 6] |  | no mortality |  | > 46 | <0.7 |  | 28.4 ± 14.3 | 1.5 | CC50 [9]: 137 µM; selectivity index (SI) L6 vs L. infantum ([10]; CC50 L6 / IC50 L. infantum): ≤ 3; selectivity index (SI) L6 vs L. tropica ([10]; CC50 L6 / IC50 L. tropica): 4.8
C(=C1c2ccccc2CCc2ccccc21)[C@@H]1CCCN2CCCC[C@H]12 [Compound 18, lupinylidene dibenzocycloheptadiene] | inhibit the choline uptake |  |  | 25.2 ± 1.92 | 1.24 |  | 24.2 ± 3.58 | 1.8 | 
CCN(CC)CCNc1ccc(C)c2sc3ccccc3c(=O)c12 [Lucanthone] |  |  | 4.4 | 3.5 ± 1.17 | 8.9 | 4.8 | 2.5 | 16.8 | MIC (antibacterial activity) [11]: 30 to 60 µM; CC50 ([3]; PMA-differentiated THP-1, mean ± SD, read-out: THP-1 CC50): 15.2 ± 0.27 µM; IC50 BChE inhibition (BChE): low micromolar and sub-micromolar range; IC50 ([5]; THP-1, 72 h): 3.43 ± 0.93 µM; IC50 AChE inhibition (AChE): low micromolar and sub-micromolar range; IC50 against intramacrophagic L. tropica amastigotes [12]: 0.93 µg/mL (≈ 2.73 µM); IC50 ([12]; converted value in brackets, read-out: IC50 against intramacrophagic L. tropica amastigotes): 2.47 µM; CC50 ([7]; Vero-76 monolayers, CC50 ± SD, read-out: CC50 Vero-76): 12.4 ± 2.1 µM; S.I. L. infantum (Vero-76 cells; CC50 Vero-76 / IC50 L. infantum promastigotes): 3.5; IC50 ([8]; read-out: IC50 L. tropica, promastigotes, MTT): 2.57 ± 1.03 µM
